From patent US20240174690A1, “ANNULATED 2-AMINO-3-CYANO THIOPHENES AND DERIVATIVES FOR THE TREATMENT OF CANCER” (BOEHRINGER INGELHEIM INTERNATIONAL GMBH, priority 2021, published 2024)

Key:
SK-CO-1 cells = test: SK-CO-1 CTG proliferation assay (120 h) (CRC, G12V); format: cell-based; details: Homo sapiens; SK-CO-1 cells (CRC, G12V), CTG 120 h
Protocol: SK-CO-1 CTG Proliferation Assay (120 h) (CRC, G12V)
SK-CO-1 cells (ATCC HTB-39) are dispensed into 384-well plates, flat and clear bottom (Greiner, PNr. 781091) at a density of 500 cells per well in 60 μL EMEM (Sigma M5650)+10% Fetal Calf Serum (HyClone, PNr.: SH30084.03) and incubated at 37° C. in a CO2 incubator overnight. The next day, compounds (10 mM stock in DMSO) are added with the ECHO acoustic liquid handler system (Beckman Coulter), including DMSO controls. Plates are incubated for 120 h, and cell viability is measured using CellTiter-Glo luminescent cell viability reagent (Promega product code G7570). Viability (stated as percent of control) is defined as relative luminescence units RLU of each well divided by the RLU of cells in DMSO controls. IC50 values are determined from viability measurements by non-linear regression using a four-parameter model.

[1] = Plasma protein binding assay (PPB), equilibrium dialysis, 10% FCS in PBS; format: in vitro ADME; details: bovine, read-out: PPB 10% FCS (% fu)
Outline: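 Test compound (1-10 μmol/L) in 10% FCS in PBS was dialysed for 3-5 h at 37° C versus PBS ± dextran across a semipermeable membrane. LC-MS of both compartments after protein precipitation gave Cserum and Cbuffer, from which the unbound fraction fu was derived.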

CYP3A4 = CYP3A4 (Homo sapiens (Human), UniProt P08684); test: Mechanism based inhibition of CYP3A4 assay (MBI 3A4); format: in vitro ADME; details: hydroxy-midazolam formation after 30 min vs 0 min preincubation, 25 uM, human liver microsomes
Protocol: After preincubation, the incubate is diluted 1:10 and the substrate midazolam is added for the main incubation (15 min). The main incubation is quenched with acetonitrile and the formation of hydroxy-midazolam is quantified via LC/MS-MS. The formation of hydroxy-midazolam from the 30 min preincubation relative to the formation from the 0 min preincubation is used as a readout. Values of less than 100% mean that the substrate midazolam is metabolized to a lower extent upon 30 min preincubation compared to 0 min preincubation. In general low effects upon 30 min preincubation are desired (corresponding to values close to 100%/not different to the values determined with water control).

[2] = Caco-2 assay (permeability PappAB, PappBA, efflux ratio); format: in vitro ADME; details: human, Caco-2, 10 μM test compound, pH 7.4; for Papp A→B at 90 min, 10 μM: apical to basolateral; for efflux ratio at 90 min, 10 μM: efflux ratio PappBA/PappAB, read-out: Caco ER
Description: The assay provides information on the potential of a compound to pass the cell membrane, on the extent of oral absorption as well as on whether the compound is actively transported by uptake and/or efflux transporters. Permeability measurements across polarized, confluent Caco-2 cell monolayers grown on permeable filter supports (Corning, catalog #3391) are used. […] The receiver and donor compartments contain 0.25% bovine serum albumine (BSA) in assay buffer. Passive diffusion and/or active transport of compounds across the monolayer is measured in both apical to basolateral (a-b) and basolateral to apical (b-a) direction. a-b permeability (PappAB) represents drug absorption from the intestine into the blood and b-a permeability (PappBA) drug secretion from the blood back into the intestine via both passive permeability as well as active transport mechanisms mediated by efflux and uptake transporters that are expressed on the Caco-2 cells. After a pre-incubation of 25-30 min at 37° C., at predefined time points (0, 30, 60 and 90 min), samples were taken from the receiver and donor compartment, respectively. Concentrations of test compounds in samples were measured by HPLC/MS/MS, samples from the donor compartment were diluted 1:50 (v:v) with assay buffer, samples from receiver compartment were measured without dilution.
Apparent permeabilities in a-b (PappAB) and b-a (PappBA) directions are calculated according to the formula:
[formula] • Vrec [mL]: buffer volume in receiver compartment • Cdon [μmol/mL]: concentration of test compound in donor compartment at t=0 • ΔCrec: difference between concentrations of test compound in receiver compartment at start and end of incubation time • Δt: Incubation time • Vrec·ΔCrec/Δt [μmol/min]: Amount of compound transferred to receiver compartment per time • A [cm^2]: filter surface
Caco-2 efflux ratios (ER) are calculated as the ratio of PappBA/PappAB.

[3] = test system: KRAS G12V-dependent Ba/F3 cells; test: Ba/F3 proliferation assay, KRAS G12V; format: cell-based; details: Mus musculus, BaF3, 72 h, AlamarBlue;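 note: proliferation IC50 in KRAS G12V-dependent Ba/F3 cells read by AlamarBlue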
Outline: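 IL-3-independent Ba/F3 lines driven by transduced KRAS G12C, G12D or G12V, with puromycin withdrawn about ten days before testing. Viability after compound treatment measured by AlamarBlue fluorescence in duplicate, and values derived by curve fitting.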

CYP3A4, sequence (P08684 whole entry): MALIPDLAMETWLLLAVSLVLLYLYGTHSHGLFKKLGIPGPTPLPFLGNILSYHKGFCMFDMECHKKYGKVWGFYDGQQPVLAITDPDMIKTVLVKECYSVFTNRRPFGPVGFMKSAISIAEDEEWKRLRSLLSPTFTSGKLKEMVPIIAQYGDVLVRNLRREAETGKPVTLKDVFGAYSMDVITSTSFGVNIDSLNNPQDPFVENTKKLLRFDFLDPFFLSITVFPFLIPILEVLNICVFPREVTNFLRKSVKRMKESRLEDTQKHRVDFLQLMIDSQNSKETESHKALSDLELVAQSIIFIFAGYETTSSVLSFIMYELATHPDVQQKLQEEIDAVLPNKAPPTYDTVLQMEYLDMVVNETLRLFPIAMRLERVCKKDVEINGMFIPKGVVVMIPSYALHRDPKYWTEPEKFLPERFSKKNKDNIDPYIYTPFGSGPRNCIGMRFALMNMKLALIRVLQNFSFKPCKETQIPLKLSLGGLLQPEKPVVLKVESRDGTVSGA

IC50 (SK-CO-1 cells)	fraction unbound [1]	MBI 3A4 (CYP3A4)	Papp A→B at 90 min, 10 μM [2]	efflux ratio at 90 min, 10 μM [2]	IC50 [3]	Compound
5570 nM	0.09	74%	5.8 ×10⁻⁶ cm/s	1.2	23 nM	Cc1cn(C)nc1-c1cc(O[C@@H](C)[C@@H]2CCCN2C)nc(-c2noc3c2CCC[C@@]32CCCc3sc(N)c(C#N)c32)n1 [II-68]
115 nM	0.45	94%	4.1 ×10⁻⁶ cm/s	5.4	7 nM	C[C@H](Oc1cc(-n2ccnc2)nc(-c2noc3c2CCC[C@@]32CCCc3sc(N)c(C#N)c32)n1)[C@@H]1CCCN1C [II-69]
28 nM	0.44	64%	17 ×10⁻⁶ cm/s	1.4	5 nM	C[C@H](Oc1cc(-n2cncn2)nc(-c2noc3c2CCC[C@@]32CCCc3sc(N)c(C#N)c32)n1)[C@@H]1CCCN1C [II-70]
18 nM	0.59	79%	0.5 ×10⁻⁶ cm/s	63.3	8 nM	C[C@H](Oc1cc(-c2cc[nH]n2)nc(-c2noc3c2CCC[C@@]32CCCc3sc(N)c(C#N)c32)n1)[C@@H]1CCCN1C [II-71]
23 nM	0.16	57%	5 ×10⁻⁶ cm/s	5	14 nM	C[C@H](Oc1cc(N2CCN(C)C2=O)nc(-c2noc3c2CCC[C@@]32CCCc3sc(N)c(C#N)c32)n1)[C@@H]1CCCN1C [II-75]
120 nM	0.61	73%	6.5 ×10⁻⁶ cm/s	3.7	19 nM	C[C@H](Oc1cc(C2CCOCC2)nc(-c2noc3c2CCC[C@@]32CCCc3sc(N)c(C#N)c32)n1)[C@@H]1CCCN1C [II-76]
32 nM	0.52	62%	2 ×10⁻⁶ cm/s	23	13 nM	CC(=O)N1CC=C(c2cc(O[C@@H](C)[C@@H]3CCCN3C)nc(-c3noc4c3CCC[C@@]43CCCc4sc(N)c(C#N)c43)n2)CC1 [II-81]
170 nM	0.66	73%	2.5 ×10⁻⁶ cm/s	9.2	44 nM	C[C@H](Oc1cc(-c2cncnc2)nc(-c2noc3c2CCC[C@@]32CCCc3sc(N)c(C#N)c32)n1)[C@@H]1CCCN1C [II-82]
51 nM	0.08	52%	–	1.2	8 nM	C[C@H](Oc1cc(-c2ccccn2)nc(-c2noc3c2CCC[C@@]32CCCc3sc(N)c(C#N)c32)n1)[C@@H]1CCCN1C [II-85]
121 nM	0.34	68%	12 ×10⁻⁶ cm/s	0.8	14 nM	C[C@H](Oc1cc(-c2cnn(C)n2)nc(-c2noc3c2CCC[C@@]32CCCc3sc(N)c(C#N)c32)n1)[C@@H]1CCCN1C [II-86]
71 nM	0.26	64%	< 1.7 ×10⁻⁶ cm/s	–	25 nM	C[C@H](Oc1cc(-c2cn[nH]c2)nc(-c2noc3c2CCC[C@@]32CCCc3sc(N)c(C#N)c32)n1)[C@@H]1CCCN1C [II-87]
47 nM	0.2	77%	12 ×10⁻⁶ cm/s	1.8	6 nM	C[C@H](Oc1cc([C@H]2CCOC2)nc(-c2noc3c2CCC[C@@]32CCCc3sc(N)c(C#N)c32)n1)[C@@H]1CCCN1C [II-88]
78 nM	0.08	68%	9 ×10⁻⁶ cm/s	1.6	8 nM	CO[C@@H]1C[C@@H]([C@H](C)Oc2cc(-c3ccn(C)n3)nc(-c3noc4c3CCC[C@@]43CCCc4sc(N)c(C#N)c43)n2)N(C)C1 [II-91]
19 nM	0.31	71%	13 ×10⁻⁶ cm/s	2.1	3 nM	C[C@H](Oc1cc([C@@H]2CCOC2)nc(-c2noc3c2CCC[C@@]32CCCc3sc(N)c(C#N)c32)n1)[C@@H]1CCCN1C [II-94]
341 nM	0.53	68%	12 ×10⁻⁶ cm/s	2.2	27 nM	C[C@H](Oc1cc(C2COCCO2)nc(-c2noc3c2CCC[C@@]32CCCc3sc(N)c(C#N)c32)n1)[C@@H]1CCCN1C (some centres unmarked) [II-95]
67 nM	0.25	85%	6.5 ×10⁻⁶ cm/s	7.3	5 nM	C[C@H](Oc1cc(-c2ccn(C)n2)nc(-c2noc3c2CCC[C@@]32CCCc3sc(N)c(C#N)c32)n1)[C@@H]1CCCN1C [II-96]
212 nM	0.13	76%	< 9.7 ×10⁻⁶ cm/s	–	26 nM	C[C@H](Oc1cc(-c2cccc(CO)c2)nc(-c2noc3c2CCC[C@@]32CCCc3sc(N)c(C#N)c32)n1)[C@@H]1CCCN1C [II-97]
137 nM	0.01	74%	–	1.5	14 nM	C[C@H](Oc1cc(-c2ccn(C3CC3)n2)nc(-c2noc3c2CCC[C@@]32CCCc3sc(N)c(C#N)c32)n1)[C@@H]1CCCN1C [II-98]
159 nM	0.11	78%	1.1 ×10⁻⁶ cm/s	23.6	35 nM	C[C@H](Oc1cc(N2CCC(C#N)C2)nc(-c2noc3c2CCC[C@@]32CCCc3sc(N)c(C#N)c32)n1)[C@@H]1CCCN1C (some centres unmarked) [II-99]
31 nM	0.07	79%	< 10 ×10⁻⁶ cm/s	1.1	6 nM	C[C@H](Oc1cc(-n2cncc3ccnc2-3)nc(-c2noc3c2CCC[C@@]32CCCc3sc(N)c(C#N)c32)n1)[C@@H]1CCCN1C [II-105]
491 nM	0.2	61%	15 ×10⁻⁶ cm/s	1.1	23 nM	Cc1cn(-c2cc(O[C@@H](C)[C@@H]3CCCN3C)nc(-c3noc4c3CCC[C@@]43CCCc4sc(N)c(C#N)c43)n2)nn1 [II-106]
181 nM	0.24	58%	10 ×10⁻⁶ cm/s	2.4	8 nM	CO[C@@H]1C[C@@H]([C@H](C)Oc2cc(-c3ccn(C4COC4)n3)nc(-c3noc4c3CCC[C@@]43CCCc4sc(N)c(C#N)c43)n2)N(C)C1 [II-107]
106 nM	0.18	63%	3.5 ×10⁻⁶ cm/s	7.4	18 nM	C[C@H](Oc1cc(-c2ccn(C3COC3)n2)nc(-c2noc3c2CCC[C@@]32CCCc3sc(N)c(C#N)c32)n1)[C@@H]1CCCN1C [II-109]
